Measured values published in US8071533B2, “Compositions and methods for modulating store-operated calcium entry” (University of Medicine and Dentistry of New Jersey, priority 2006, dated 2011).

What was measured:
SOCE in NRP-154 cells = details: 10 μM 2-APB, NRP-Con and NRP-Bax cells, TG-depleted
Procedure: The role of SOCE in Ca signaling in NRP-154 cells was examined. […] Following ER Ca depletion (200 s treatment), 0.5 mM MnCl2 was added into cuvettes containing 1×10^6 NRP-154 cells loaded with Fura-2. The quenching of Fura-2 fluorescence by the entry of Mn^2+ provided a quantitative assay of SOCE. Specifically, the slope of reduction of Fura-2 fluorescence with time reflected the degree of SOCE activation.

SOCE in C2C12 myotubes = test: SOCE by Mn quenching of Fura-2 in C2C12 myotubes; format: cell-based, mouse
Procedure: HEPM cells were loaded with 10 μM Fura-2 AM (Invitrogen, Carlsbad, Calif.) for 45 min at 37° C. and allowed to de-esterify for 15 min at 25° C. Cells were then harvested and re-suspended in balanced salt solution (BSS) containing (in mM): 140 NaCl, 2.8 KCl, 2 CaCl2, 2 MgCl2, 10 HEPES, pH 7.2. 2.5×10^6 cells were transferred into the cuvette system of a PTI spectrofluorometer (Photon Technology International, Princeton, N.J.) and the changes in [Ca]i were measured as changes in the ratio of Fura-2 fluorescence at excitation wavelength of 350 nm (F350) and 380 nm (F380), following exposure to various concentrations of thapsigargin, ionomycin or caffeine and ryanodine (C/R). For measurement in 0.5 mM EGTA, cells were centrifuged and re-suspended in BSS without CaCl2, and 0.5 mM EGTA was added immediately before recordings. […] All experiments were conducted at 25±2° C.
(§1) Manganese (Mn^2+) is known to be able to permeate into cells via store-operated Ca channels (SOCs), but is impervious to surface membrane extrusion processes or SR uptake by Ca pumps. […] Briefly, to measure the Mn^2+ influx rate through the SOC machinery, thapsigargin (TG), or C/R, was applied to cultured cells or C2C12 myotubes to induce SR Ca depletion in 0 mM extracellular CaCa ([CaCa]o), then 0.5 mM Mn^2+ was added to the extracellular solution. The quenching of Fura-2 fluorescence by Mn^2+ was measured at the Ca-independent excitation wavelength of Fura-2 (360 nm). The decay of Fura-2 fluorescence upon Mn^2+ addition was expressed as percent decrease in Fura-2 fluorescence per unit time (the initial fluorescence is set equal to 100%). For all measurements of SOCE by Mn^2+ quenching, the maximally quenched fluorescence signal was established at the end of the experiment by lysing the cells with 1% Triton, and set equal to 0% fluorescence.

[1] = system: human embryonic palatal mesenchymal (HEPM) cells; test: Intracellular Ca store release in HEPM cells (Fura-2 ratio, PTI cuvette); format: cell-based; details: for Mobilization of Ca from endoplasmic reticulum (ER) stores: HEPM cells loaded with Fura-2
Procedure: HEPM cells were loaded with 10 μM Fura-2 AM (Invitrogen, Carlsbad, Calif.) for 45 min at 37° C. and allowed to de-esterify for 15 min at 25° C. Cells were then harvested and re-suspended in balanced salt solution (BSS) containing (in mM): 140 NaCl, 2.8 KCl, 2 CaCl2, 2 MgCl2, 10 HEPES, pH 7.2. 2.5×10^6 cells were transferred into the cuvette system of a PTI spectrofluorometer (Photon Technology International, Princeton, N.J.) and the changes in [Ca]i were measured as changes in the ratio of Fura-2 fluorescence at excitation wavelength of 350 nm (F350) and 380 nm (F380), following exposure to various concentrations of thapsigargin, ionomycin or caffeine and ryanodine (C/R). For measurement in 0.5 mM EGTA, cells were centrifuged and re-suspended in BSS without CaCl2, and 0.5 mM EGTA was added immediately before recordings. Measurement of Ca in individual C2C12 myotubes were performed as described before (Shin, D. W. et al. 2003. J. Biol. Chem. 278:3286-3292). All experiments were conducted at 25±2° C.

SOCE in HEPM cells = test: SOCE by Mn quenching of Fura-2 in HEPM cells; format: cell-based, human
Procedure: as §1

STIM1 = target: T1, STIM1 (Homo sapiens, UniProt Q13586); test: Co-immunoprecipitation of P311 with STIM1 in CHO cell lysates; format: binding; details: anti-P311 and anti-STIM1
T1 construct: host or cells: CHO cells (transient transfection)
T1 sequence (Q13586 23-685): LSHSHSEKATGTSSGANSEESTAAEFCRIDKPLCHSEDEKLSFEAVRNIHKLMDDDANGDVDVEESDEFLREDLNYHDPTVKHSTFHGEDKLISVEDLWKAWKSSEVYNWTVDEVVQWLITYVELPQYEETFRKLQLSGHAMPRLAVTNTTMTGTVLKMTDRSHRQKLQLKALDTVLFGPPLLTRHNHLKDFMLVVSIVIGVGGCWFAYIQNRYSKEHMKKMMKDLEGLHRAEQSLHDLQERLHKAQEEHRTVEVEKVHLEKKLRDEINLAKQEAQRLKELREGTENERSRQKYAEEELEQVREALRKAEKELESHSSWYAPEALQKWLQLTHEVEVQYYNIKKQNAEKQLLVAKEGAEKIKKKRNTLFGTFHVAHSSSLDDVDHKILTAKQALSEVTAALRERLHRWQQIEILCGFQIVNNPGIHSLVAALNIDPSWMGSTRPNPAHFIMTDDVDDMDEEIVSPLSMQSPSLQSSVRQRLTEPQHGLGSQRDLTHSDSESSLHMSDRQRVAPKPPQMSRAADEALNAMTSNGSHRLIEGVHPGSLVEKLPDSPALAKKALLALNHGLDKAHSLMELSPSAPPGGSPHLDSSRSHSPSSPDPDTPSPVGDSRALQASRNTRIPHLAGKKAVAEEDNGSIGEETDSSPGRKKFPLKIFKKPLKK
Procedure: (§2) Next, the interaction of P311 with SOCE molecular machinery was examined experimentally. The interaction of P311 with known components of SOCE, such as STIM1 and Orai1, was studied. A GFP-myc-Orai1 plasmid and the mammalian expression plasmid containing the human STIM1 cDNA (OriGene, Inc.) were used. The plasmids were transfected into CHO cells and 36 hours after transfection, total cell lysates from CHO cells transiently expressing GFP-myc-Orai1 were incubated with either a polyclonal antibody against P311, or an anti-myc monoclonal antibody, with normal rabbit IgG serving as the control. […] Similar results were obtained when co-IP assays were repeated using reversible cross-linker DSP and different detergents in cell lysis buffer, including Triton X-100, NP-40 and CHAPS.

Orai1 = target: T2, Orai1 (Homo sapiens, UniProt Q96D31); test: Co-immunoprecipitation of P311 with Orai1 in CHO cell lysates; format: binding; details: CHO lysates expressing GFP-myc-Orai1; anti-myc and anti-P311
T2 construct: expressed in transfected cells; host or cells: CHO cells (transient transfection, lysate 36 h after transfection)
T2 sequence (Q96D31 whole entry, species assumed): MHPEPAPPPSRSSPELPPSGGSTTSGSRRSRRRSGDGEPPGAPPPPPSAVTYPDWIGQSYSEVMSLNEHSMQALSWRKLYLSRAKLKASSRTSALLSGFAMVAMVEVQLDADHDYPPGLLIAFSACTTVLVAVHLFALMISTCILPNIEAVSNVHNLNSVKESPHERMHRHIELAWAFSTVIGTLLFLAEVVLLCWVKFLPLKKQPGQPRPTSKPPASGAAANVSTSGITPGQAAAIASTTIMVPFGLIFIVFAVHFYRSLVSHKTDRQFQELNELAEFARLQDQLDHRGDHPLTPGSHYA
Procedure: as §2

[2] = Solubility of recombinant P311 expressed in E. coli; format: physicochemical; details: E. coli lysate, a portion of the overexpressed protein
Procedure: Using standard recombinant DNA technology, the full-length P311 protein was cloned into a T7-based expression plasmid with a 6× His-tag at either the amino-terminus (pET15b, Novagen) or the carboxy-terminus (pET21b, Novagen) and as a fusion protein with glutathione S-transferase (GST) in plasmid pGEX-2T (Pharmacia). In addition, the untagged P311 was cloned into a T7-based bacterial expression vector pG5 (Alexander, P. et al. 1992. Biochemistry 31:3597-3603). The bacterial host is grown for 12-14 hours at room temperature or for 4 hours at 37° C. after induction with 0.2 mM IPTG. Robust expression for the amino-terminal His6-tagged P311 protein […] was observed; the amino-terminal His6-tagged P311 protein was soluble. The soluble fraction of the His6-tagged P311 protein in the E. coli lysate was purified over a Ni-NTA agarose column. The protein was eluted by 250 mM immidazole and further purified by […] chromatography (Source-15S, Pharmacia) and gel-filtration chromatography (Superdex-200, Pharmacia). The P311 protein was purified to greater than 80% homogeneity as judged on SDS-PAGE. The concentration of P311 was determined by spectroscopic measurement at 280 nm.

NCCOB(c1ccccc1)c1ccccc1 [2-APB, 2-aminoethoxydiphenyl borate]
Effect on SOCE (Mn quenching of Fura-2) (SOCE in NRP-154 cells): inhibited SOCE
Effect on PTZ-triggered Mn quenching of Fura-2 fluorescence (SOCE in C2C12 myotubes; C2C12 myotubes): inhibited
Effect on TG-initiated Mn entry through SOCE (SOCE in C2C12 myotubes; C2C12 myotubes, 2-APB 20 μM): blocked

Nc1ncnc2c1ncn2[C@@H]1O[C@H](COP(=O)(O)OP(=O)(O)OP(=O)(O)O)[C@@H](O)[C@H]1O [ATP, adenosine triphosphate]
Ca release on ATP stimulation in LPS-treated cells ([1]; ATP 1 or 3 mM, LPS-treated HEPM cells): no effect
Mobilization of Ca from endoplasmic reticulum (ER) stores [1]: not responsive

C1CCc2nnnn2CC1 [PTZ, pentylenetetrazol]
Effect on SOCE in shRNA-treated myotubes (SOCE in C2C12 myotubes; C2C12 myotubes transfected with shRNA against P311): absent
SR Ca filling status (SOCE in C2C12 myotubes; C2C12 myotubes treated with PTZ): without affecting the SR Ca filling status
Activation of SOCE (Mn entry) (SOCE in C2C12 myotubes; C2C12 myotubes, 20 mM PTZ, no SR Ca depletion): induced the activation of SOCE

C[C@H](CCC(=O)O)C[C@H](C)C[C@H](C)C(=O)/C=C(\O)[C@H](C)C[C@H](C)C/C=C/[C@@H](C)[C@@H](O)[C@@H](C)[C@@H](O)C[C@@H]1CC[C@@](C)([C@H]2CC[C@@](C)([C@@H](C)O)O2)O1 [ionomycin]
Activation of SOCE following Ca store depletion (SOCE in HEPM cells): rapid activation of SOCE
Mobilization of Ca from endoplasmic reticulum (ER) stores [1]: reveals a large store of Ca available for release

[K+] [potassium]
Mobilization of Ca from endoplasmic reticulum (ER) stores [1]: not responsive

C/C=C(/C)C(=O)O[C@H]1C(C)=C2[C@H]([C@@H]1OC(=O)CCCCCCC)[C@@](C)(OC(C)=O)C[C@H](OC(=O)CCC)[C@@]1(O)[C@H]2OC(=O)[C@@]1(C)O [thapsigargin]
Activation of SOCE following Ca store depletion (SOCE in HEPM cells): rapid activation of SOCE

B1: P311: 68 amino acid, 8 kDa cytosolic protein (SEQ ID NO: 1 human, SEQ ID NO: 10 mouse) regulating SOCE (protein)
chain: MVYYPGLLVWVSQEPFLYKEMEGSLTKGRLPVPKEVNRKKLEEARAASMTPPGSHELCFPNISYL
Co-immunoprecipitation with STIM1 (STIM1): could not immunoprecipitation
Co-immunoprecipitation with Orai1 (Orai1): physical interaction between P311 and Orai1

B2: His6-tagged P311: full-length P311 with amino-terminal 6x His-tag expressed in E. coli (protein, UniProt Q16612 1-68, looked up)
chain: MVYYPELFVWVSQEPFPNKDMEGRLPKGRLPVPKEVNRKKNDETNAASLTPLGSSELRSPRISYLHFF
modifications: full-length N-terminal His6 tag
notes: full-length P311 with amino-terminal 6x His-tag expressed in E. coli
Solubility of overexpressed protein [2]: soluble
